Measurements published in patent US12318452B2, “Degraders of WEE1 kinase” (DANA-FARBER CANCER INSTITUTE, INC., priority 2018, dated 2025).

Legend:
OVCAR8 cells = assay: Synergy experiment, CellTiter-Glo co-treatment for 72 hours; format: cell-based; settings: 72-hr co-treatment with Olaparib
[1] = tested on: MOLT4 cells (parental, wild type); assay: CellTiter-Glo cell viability, 72 hours; format: cell-based; settings: Homo sapiens, MOLT-4, 72 hours, read-out: Antiproliferative IC50
Experimental: The indicated cell lines were plated in flat bottom 384-well plates (Corning® cat #3570). MOLT4 cells were plated at a density of 3,000 cells per well in 50 μL media, while OVCAR8, COV362, and Kuramochi cells were plated at a density of 750 cells per well in 50 μL media. Cells were treated the next day (except for MOLT4 cells, which were treated the same day as plating) with 0.1 μL of the indicated compounds in a four-fold dilution series using the Janus pinner. Cells were incubated with compounds for 72 hours at 37° C. 5% CO2. Anti-proliferative effects were then assessed by CellTiter-Glo® Luminescent Cell Viability Assay (Promega™ cat #G7570) according to the manufacturer's standards, measuring luminescence using an EnVision® plate-reader. IC50 values were determined using a non-linear regression curve fit in GraphPad Prism 8. N=4 biological replicates were used for each treatment condition.
MOLT4 cells were plated in a 384-well plate at 5,000 cells per well in 50 μL media (RPMI+10% FBS+1% Penn/Strep) and treated with 0.1 μL of the candidate compounds in four-fold dilution series using the Janus pinner. Cells were incubated with compounds for 72 hours at 37° C. 5% CO2. Anti-proliferative effects of these compounds were assessed 72 hours after compound addition using CellTiter-Glo® (Promega, cat #G7571). All proliferation assays were performed in biological quadruplicate. […] Effects upon cell viability for compound 13 in the MOLT4 WT cells are therefore likely driven in part by Wee1 inhibition, and in part by CRBN-mediated Wee1 degradation. […] Degradation of Wee1 with compound 21 was mediated by VHL.

Wee1 [2] = target: T1, Wee1 (Homo sapiens, UniProt P30291); assay: Cellular degradation of Wee1 by immunoblot, 6-hour treatment of MOLT4 cells; format: cell-based; design: endogenous in cells; host or cells: MOLT4 (wild type; CRBN-/- as control); settings: for Wee1 degradation / percent Wee1 degradation at 1 µM: MOLT4 cells; for Wee1 degradation: immunoblot; for percent Wee1 degradation at 1 µM: MOLT-4, 1 μM, approximated by immunoblot, read-out: Extent of Degradation of Wee1
Experimental: General Protocol: HT-29, MOLT4 wild type (WT) or CRBN^-/- cells were plated in a 6 well plate and treated for 6 hours with the indicated concentrations of the inventive compounds and control. HT-29 cells were cultured in McCoy's Media supplemented with 10% FBS and 1% Penicillin/Streptomycin. MOLT4 WT and CRBN^-/- cells were cultured in Roswell Park Memorial Institute (RPMI) medium supplemented with 10% FBS and 1% Penicillin/Streptomycin. Mycoplasma testing was performed every month and all lines were negative. Immunoblotting: Cells were washed with phosphate-buffered saline (PBS) and then lysed using radioimmunoprecipitation assay (RIPA) buffer supplemented with protease and phosphatase inhibitor cocktail (Roche) on ice for 15 minutes. The lysates were centrifuged at 14,000 rpm for 15 minutes at 4° C. and protein was quantified by bicinchoninic acid (BCA) assay (PierceTM). Primary antibodies used include: Wee1 ([…]) (Cell Signaling Technology®, 13084S), polo-like kinase 1 (PLK1) (Thermo Fisher Scientific, 37-7000), phosphor-cdc2 (Y15) (10A11) (Cell Signaling Technology®, […]), phospho-histone H3 ([…]) (Cell Signaling Technology®, […]), Ikaros ([…]) (Cell Signaling Technology®, 14859S), Aiolos ([…]) (Cell Signaling Technology®, 15103), casein kinase 1 alpha (Abcam®, 108296), β-actin (Cell Signaling Technology®, 8H10D10). FIG. 2A is an immunoblot showing that compound 13 degraded Wee1 after a 6-hour treatment in MOLT4 cells, and induced the downstream changes expected from Wee1 loss-including a decrease in phosphorylated cyclin-dependent kinase 1 (pCDK1) (Y15) and an increase in pH 3. […] Degradation of Wee1 by compound 13 was rescued in MOLT4 CRBN^-/- cells. MOLT4 WT and CRBN^-/- cells were plated in a 6-well plate at 2.25 million cells per well in 3 mL media (RPMI+10% FBS+1% Penn/Strep). After treatment with the indicated concentrations of candidate compounds, cells were incubated for 6 hours at 37° C. 5% CO2. To harvest, the cells were washed 1× with cold PBS, then collected by centrifugation. Cell pellets were lysed in RIPA buffer with protease and phosphatase inhibitors (Roche). Lysates were clarified by centrifugation, and protein concentrations were normalized using a BCA assay (Thermo ScientificTM). The samples were diluted with 4×LDS+10% β-mercaptoethanol, and were boiled at 95° C. for 5 minutes. Proteins of interest were then assessed by western blotting. […] The experimental protocol was the same as in Example 28.

MOLT4 cells = assay: Cell cycle analysis by propidium iodide staining; format: cell-based
Experimental: MOLT4 cells were plated at 1.5 million cells per well in a 6-well plate, with 3 mL of media per well. Immediately after plating, cells were treated with the indicated concentrations of the indicated compound. At the indicated time points, cells were collected by transferring each well to a 15 mL conical, centrifuging (1000 rpm for 3 min), and then washing the cell pellet 3× with cold PBS. Cell pellets were then fixed with 1 mL cold 80% ethanol in PBS at 4° C. overnight. The cell pellets were then washed by adding 1 mL of PBS and then centrifuging (1500 rpm for 5 minutes), followed by aspiration of the PBS/ethanol mix. Cells were resuspended in cell cycle staining solution (100 μg/mL of RNAse A (Roche, 10109169001) and 50 μg/mL propidium iodide (Life Technologies™, P1304MP), diluted in PBS, and incubated for 10 minutes at room temperature. Cell cycle data was acquired by flow cytometry on a Guava® easyCyte™ flow cytometer (Millipore™) using the InCyte™ software. Data was analyzed using FlowJo®. N=3 biological replicates were used for each treatment condition.

[3] = tested on: 300 suspension and hematopoietic cancer cell lines; assay: PRISM pooled cytotoxicity assay; format: cell-based
PLK1 = PLK1 (Homo sapiens, UniProt P53350); assay: Z′-LYTE kinase activity assay for PLK1; format: biochemical; design: purchased Life Technologies (Invitrogen) commercial assay service; settings: Km ATP, average of two replicates ± SD
Experimental: (§1) LanthaScreen™ assays were conducted for Wee1 in a 10-point dose response as performed in the commercial assay service by Life Technologies™. Z′-LYTE™ assays were conducted for PLK1 as performed in the commercial assay service by Life Technologies™ in a 10-point dose response using Km ATP concentrations.
The selectivity of Wee1 degradation was then assessed by performing multiplexed mass spectrometry (MS)-based proteomics in MOLT4 cells treated with 100 nM of compound 13 for 2 hours (Donovan et al., Elife 7:e38430 (2018)).

Wee1 [4] = target: T1, Wee1; assay: LanthaScreen FRET-based biochemical binding assay for Wee1; settings: LanthaScreen Binding activity assay; average of two replicates ± SD
Experimental: as §1

T1 sequence (P30291 whole entry): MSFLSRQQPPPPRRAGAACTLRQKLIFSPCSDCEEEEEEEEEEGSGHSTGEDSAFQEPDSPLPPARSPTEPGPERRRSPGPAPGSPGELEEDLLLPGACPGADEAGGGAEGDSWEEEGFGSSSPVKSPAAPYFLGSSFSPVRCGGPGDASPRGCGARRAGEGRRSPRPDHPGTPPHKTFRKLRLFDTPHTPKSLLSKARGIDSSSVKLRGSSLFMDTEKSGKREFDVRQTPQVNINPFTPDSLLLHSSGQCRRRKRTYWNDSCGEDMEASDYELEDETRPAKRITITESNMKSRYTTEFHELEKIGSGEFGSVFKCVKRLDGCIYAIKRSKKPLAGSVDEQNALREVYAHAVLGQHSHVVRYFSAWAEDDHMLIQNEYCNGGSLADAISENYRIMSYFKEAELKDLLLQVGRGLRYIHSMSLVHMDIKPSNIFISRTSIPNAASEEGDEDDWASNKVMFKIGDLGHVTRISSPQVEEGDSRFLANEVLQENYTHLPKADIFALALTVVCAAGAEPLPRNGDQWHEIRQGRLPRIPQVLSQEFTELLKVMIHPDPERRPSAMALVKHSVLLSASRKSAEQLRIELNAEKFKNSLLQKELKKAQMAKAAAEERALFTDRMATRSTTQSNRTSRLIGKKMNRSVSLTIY
PLK1, sequence (P53350 whole entry): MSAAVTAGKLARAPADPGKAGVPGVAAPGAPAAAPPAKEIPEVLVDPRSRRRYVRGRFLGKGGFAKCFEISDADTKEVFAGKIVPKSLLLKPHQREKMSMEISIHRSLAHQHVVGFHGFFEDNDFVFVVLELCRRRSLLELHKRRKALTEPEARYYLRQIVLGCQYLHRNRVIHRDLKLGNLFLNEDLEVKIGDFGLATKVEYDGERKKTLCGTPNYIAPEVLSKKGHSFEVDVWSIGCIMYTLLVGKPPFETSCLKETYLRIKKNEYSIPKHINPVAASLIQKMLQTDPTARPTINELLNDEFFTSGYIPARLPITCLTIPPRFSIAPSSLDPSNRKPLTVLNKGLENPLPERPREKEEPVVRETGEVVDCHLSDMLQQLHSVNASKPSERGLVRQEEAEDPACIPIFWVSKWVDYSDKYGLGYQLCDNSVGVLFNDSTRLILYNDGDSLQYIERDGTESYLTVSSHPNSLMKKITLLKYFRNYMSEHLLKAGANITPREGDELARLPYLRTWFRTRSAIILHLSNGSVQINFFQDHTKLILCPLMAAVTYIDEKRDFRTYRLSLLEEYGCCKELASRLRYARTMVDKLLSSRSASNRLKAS

| SMILES | Synergy with Olaparib (OVCAR8 cells) | IC50 [1] | Wee1 degradation in CRBN−/− cells (Wee1 [2]; MOLT4 CRBN−/− cells) | Wee1 degradation (Wee1 [2]) | percent Wee1 degradation at 1 µM (Wee1 [2]) | G2-M cells (MOLT4 cells; 100 nM, 24-hr treatment, MOLT4 cells, control 19%) | Cell cycle effects in CRBN−/− cells (MOLT4 cells; CRBN−/− MOLT4 cells, 24 hours) | Fold lower doses than AZD1775 inducing premature mitotic entry (MOLT4 cells; MOLT4 cells) | IC50 ([3]; almost all of the lines tested, data not shown, read-out: IC50 values in PRISM panel) | IC50 (PLK1) | IC50 (Wee1 [4]) | Effect on the cell cycle (MOLT4 cells; 100 nM, 24-hr, MOLT4 cells) | Potency in PRISM panel relative to compound 13 [3] |
| --- | --- | --- | --- | --- | --- | --- | --- | --- | --- | --- | --- | --- | --- |
| C=CCn1c(=O)c2cnc(Nc3ccc(N4CCN(CCCNc5cccc6c5C(=O)N(C5CCC(=O)NC5=O)C6=O)CC4)cc3)nc2n1-c1cccc(C(C)(C)O)n1 (stereo not shown) [Compound 13, 4-((3-(4-(4-((2-allyl-1-(6-(2-hydroxypropan-2-yl)pyridin-2-yl)-3-oxo-2,3-dihydro-1H-pyrazolo[3,4-d]pyrimidin-6-yl)amino)phenyl)piperazin-1-yl)propyl)amino)-2-(2,6-dioxopiperidin-3-yl)isoindoline-1,3-dione] | synergized with Olaparib | 390 nM | rescued | degraded Wee1 | > 50% | 34% | absent | 10 fold | < 1000 nM | 102 nM | 3.58 ± 0.36 nM |  |  |
| C=CCn1c(=O)c2cnc(Nc3ccc(N4CCN(CCCNc5cccc6c5C(=O)N(C5CCC(=O)N(C)C5=O)C6=O)CC4)cc3)nc2n1-c1cccc(C(C)(C)O)n1 (stereo not shown) [Compound 20, 4-((3-(4-(4-((2-allyl-1-(6-(2-hydroxypropan-2-yl)pyridin-2-yl)-3-oxo-2,3-dihydro-1H-pyrazolo[3,4-d]pyrimidin-6-yl)amino)phenyl)piperazin-1-yl)propyl)amino)-2-(1-methyl-2,6-dioxopiperidin-3-yl)isoindoline-1,3-dione] | less synergistic activity | 4560 nM |  | did not degrade Wee1 | < 25% |  |  |  |  | 43 ± 4 nM | 7.38 ± 0.47 nM | did not appreciably affect the cell cycle | uniformly less potent |
